18 compounds from patent publication US8133889B2, “Dihydroindolone compounds, a process for their preparation and pharmaceutical compositions containing them” (Les Laboratoires Servier, priority 2009, dated 2012) can be followed below.

Data set [1] concerns human glioblastoma tumour U87-MG. The data set can be described thus: Inhibition of growth of the tumour U87-MG grafted subcutaneously in mice. The format is in vivo, female Nude BalbC mouse. To be noted: oral route; for inhibition of growth: Day 35. As for the experimental part: The human glioblastoma tumour U87-MG was grafted subcutaneously into the female Nude BalbC mouse in an amount of 10^6 cells. The tumours were then randomised into groups of eight mice once the tumour volume had reached 200 mm^3. Daily treatment (6.25, 12.5, 25 and 50 mg/kg) was administered by the oral route (vehicle=water) over a period of 17 days except for the weekends. The tumour volumes were measured twice a week using a sliding calliper. The inhibition of growth found after administration of the compounds according to the invention is statistically significant (two-factor ANOVA, with measurements repeated over time, followed by a DUNETT's test) at all doses tested between Day 21 and Day 35 (date for ethical sacrifice of the mice in the control group in conformity with ethical rules). […] Regression of the order of 70% is observed at a dose of 50 mg/kg.

In data set [2] the test system is A549 (human non-small cell lung carcinoma) cells. Description: Inhibition of the migration of A549 cells: scratch assay. To be noted: at 30 nM; A549 cells exposed 38 hours; 40 ng/ml HGF. It is filed as cell-based. Here is the method:
Cells from the A549 (human non-small cell lung carcinoma) line are cultured in an incubator at 37° C. in the presence of 5% CO2 in RPMI 1640 medium containing 10% foetal calf serum, 40 ng/ml HGF (hepatocyte growth factor), 2 mM glutamine, 50 units/ml penicillin, 50 μg/ml streptomycin and 10 mM Hepes buffer, pH=7.4. For the migration test, the A549 cells are transferred to 96-well plates (50,000 cells per well) and cultured for 24 hours to obtain cells at confluence. A one-millimetre thick scratch is made in the cell layer, and the cells are exposed to the compounds under test for 38 hours. The cell cultures are then photographed, and filling of the scratch as a result of migration of the cells is assessed.

By melting point is commonly meant the temperature of the solid-liquid transition. For `Cl.O=C1Nc2ccc(CCN3C(=O)CSC3=O)cc2C1=Cc1cc(CN2CCOCC2)c[nH]1`, the melting point is 289 °C (dec.).

`CC1(C)OC(=O)N(Cc2ccc3c(c2)C(=Cc2cc(CN4CCOCC4)c[nH]2)C(=O)N3)C1=O.Cl` returned a melting point of 191 °C.

In turn, `Cl.O=C1Nc2ccc(CN3C(=O)COC3=O)cc2C1=Cc1cc(CN2CCOCC2)c[nH]1` registered a melting point of 216 °C.

Compound `Cl.O=C1Nc2ccc(CN3CCOC3=O)cc2C1=Cc1cc(CN2CCCC2)c[nH]1` came in with a melting point of 204 °C.

Turning to `CC(=C1C(=O)Nc2ccc(CN3C(=O)COC3=O)cc21)c1cc(CN2CCOCC2)c[nH]1.Cl`, the melting point stood at 220 °C.

`CCN(CC)Cc1c[nH]c(C=C2C(=O)Nc3ccc(CN4CCOC4=O)cc32)c1.Cl` showed a melting point of 192 °C.

In the case of `Cc1[nH]c(C=C2C(=O)Nc3ccc(CN4CCOC4=O)cc32)c(C)c1CN1C[C@H]2CCC[C@H]2C1.Cl`, the melting point worked out at 204 °C.

For the compound `Cl.O=C1Nc2ccc(CN3CCOC3=O)cc2C1=Cc1c[nH]cc1CN1CCOCC1`, the melting point turned out to be 210 °C.

As for `Cl.O=C1Nc2ccc(CN3CCSC3=O)cc2C1=Cc1cc(CN2CCOCC2)c[nH]1`, the melting point is 244 °C.

For the compound `Cl.O=C1Nc2ccc(CN3C(=O)CCC3=O)cc2C1=Cc1cc(CN2CCOCC2)c[nH]1`, the melting point amounted to 212 °C.

Turning to `CC(=C1C(=O)Nc2ccc(CN3C(=O)CSC3=O)cc21)c1cc(CN2CCOCC2)c[nH]1.Cl`, the melting point was 225 °C.

`Cl.O=C1Nc2ccc(CN3CCOC3=O)cc2C1=Cc1cc(CN2CCCCC2)c[nH]1` yielded a melting point of 256 °C.

`Cl.O=C1Nc2ccc(CN3CCOC3=O)cc2C1=Cc1cc(CN2C[C@H]3C[C@H]3C2)c[nH]1`: the melting point worked out at 179 °C.

`O=C1Nc2ccc(CN3CCOC3=O)cc2C1=Cc1[nH]ccc1CN1CCOCC1` [Example 21, 3-(3-Morpholin-4-ylmethyl-1H-pyrrol-2-ylmethylene)-5-(2-oxo-oxazolidin-3-ylmethyl)-1,3-dihydro-indol-2-one]: the melting point turned out to be 192 °C.

In turn, `CC(=C1C(=O)Nc2ccc(CN3CCOC3=O)cc21)c1cc(CN2CCOCC2)c[nH]1.Cl` gave a melting point of 212 °C.

In turn, `Cl.O=C1Nc2ccc(CN3C(=O)[C@H]4C[C@H]4C3=O)cc2C1=Cc1cc(CN2CCCCC2)c[nH]1` registered a melting point of 198 °C.

Compound `Cl.O=C1Nc2ccc(CN3CCOC3=O)cc2C1=Cc1ccc(CN2CCOCC2)[nH]1` showed a melting point of 195 °C.

By inhibition of growth is commonly meant the drop in the measured response relative to a control, in per cent. As to `Cl.O=C1Nc2ccc(CN3C(=O)CSC3=O)cc2C1=Cc1cc(CN2CCOCC2)c[nH]1` [Example 1, 3-[(3-{[4-(4-Morpholinylmethyl)-1H-pyrrol-2-yl]methylene}-2-oxo-2,3-dihydro-1H-indol-5-yl)methyl]-1,3-thiazolidine-2,4-dione hydrochloride], the inhibition of growth in data set [1] (6.25 mg/kg daily) worked out at 102%; in data set [1] (12.5 mg/kg daily), 84%; in data set [1] (25 mg/kg daily), 98%. The compound also gave a regression in data set [1] (50 mg/kg daily) of about 70%. In data set [2], the “inhibition of migration (filling of the scratch)” value is given as “total inhibition”.
